What was measured:
plasma = test: Recalcification test; assay type: biochemical, rat; conditions: 58 sec. at 0 μg
Description: A 0.5 ml quantity of 0.1 M sodium citrate is added to 4.5 ml of blood of rat to obtain plasma. […] Thereafter 0.1 ml of 0.025 M CaCl2 saline solution is added to coagulate the blood sample.

lipids in blood [1] = conditions: known drugs, background; cited from earlier work
anticoagulant activity = conditions: cited from earlier work
lipids in blood [2] = test: Reduction of lipids in blood of rats given surfactant Triton WR-1339, oral administration; assay type: in vivo, rat; conditions: rats given Triton WR-1339 200 mg/kg i.v., compound 50 mg/kg oral; for Free cholesterol: normal rat 25.7 ± 3.7, rat given surfactant 114.2 ± 28.8; for β-Lipoprotein: normal rat 44.3 ± 1.3, rat given surfactant 141.7 ± 28.8; for Triglyceride: normal rat 44.7 ± 3.5, rat given surfactant 780.1 ± 354.5; for Total cholesterol: normal rat 89.9 ± 10.4, rat given surfactant 235.3 ± 41.7; for Total lipid: normal rat 220 ± 12, rat given surfactant 1033 ± 330
Description: A 100 g quantity of the methyl ester of polyglutamic acid (average molecular weight: 100,000) is dissolved in dichloroethane to a concentration of 10 wt.%. To the solution is added a mixture of 70 ml of 2 N sodium hydroxide solution, 140 ml of methanol and 140 ml of isopropanol,and the resulting mixture is stirred at room temperature for about 8 hours to effect demethylation. The product is then passed through a molecular sieve (Sephadex G-200) for the classification of molecular weight to separate a portion ranging from 80,000 to 100,000 in molecular weight (average molecular weight: 90,000). The separated portion is concentrated under reduced pressure and divided into two portions of equivalent weight. To one of the portions is added methanol and the precipitate formed is separated by filtration and dried to obtain the sodium salt of polyglutamic acid. To the other portion is added concentrated hydrochloric acid until the pH thereof reaches 4, then the solution is cooled with ice, whereby a precipitate is formed. The precipitate is separated by filtration, washed with diluted hydrochloric acid, thereafter with methanol and dried to obtain polyglutamic acid. Each powder (200 mg) of polyglutamic acid and sodium salt thereof thus obtained is mixed with 290 mg of milk sugar, 500 mg of corn starch and 10 mg of hydroxypropyl cellulose and the mixtures obtained are granulated respectively. The granules are suspended in water. Two kinds of the suspensions are orally administered to 7 rats in a dose of 50 mg/kg, respectively, to determine the reduction of lipids in blood.
The separated portion is concentrated under reduced pressure, methanol is added to the concentrate and the resulting precipitate is filtered off and dried to obtain the sodium salt of the copolymer of glutamic acid and aspartic acid. With the powder (200 mg) thus obtained are mixed 290 mg of milk sugar, 500 mg of corn starch and 10 mg of hydroxypropyl cellulose. The mixture is granulated and the granules are suspended in an isotonic sodium chloride solution.

Rat = test: Acute toxicity test; assay type: in vivo; conditions: for LD50: 72 hours after administration
[3] = amount 100 μg, ditto mark = No coagulation

## dextran sulfate
plasma; amount 0.1 μg
  Coagulation time: 57 s
plasma; amount 0.3 μg
  Coagulation time: 62 s
plasma; amount 0.5 μg
  Coagulation time: 61 s
plasma; amount 1 μg
  Coagulation time: 117 s
plasma; amount 10 μg
  Coagulation time: 172 s
plasma; [3]
  Coagulation time: No coagulation
Lipids in blood [1]
  reducing lipids in blood: effective in reducing lipids in blood
Anticoagulant activity
  anticoagulant activity as a side effect: very high anticoagulant activity

## polyglutamic acid
Lipids in blood [2]
  Free cholesterol: 38.8 ± 11.7 mg/dl of plasma
  β-Lipoprotein: 61.9 ± 29.0 mg/dl of plasma
  Triglyceride: 103.3 ± 67.2 mg/dl of plasma
  Total cholesterol: 118.1 ± 35.3 mg/dl of plasma
  Total lipid: 373 ± 132 mg/dl of plasma
Rat; Table 2
  toxicity compared with heparin: much lower toxicity than heparin
Rat; intravenous
  LD50: 2050 mg/kg
Rat; oral
  LD50: 6000 mg/kg
plasma; amount 0.1 μg
  Coagulation time: 55 s
plasma; amount 0.3 μg
  Coagulation time: 58 s
plasma; amount 0.5 μg
  Coagulation time: 56 s
plasma; amount 1 μg
  Coagulation time: 62 s
plasma; amount 10 μg
  Coagulation time: 58 s
plasma; [3]
  Coagulation time: 62 s
plasma; amount 500 μg, ditto mark = No coagulation
  Coagulation time: 100 s
plasma; amount 1000 μg, ditto mark = No coagulation
  Coagulation time: 151 s
plasma; amount 2000 μg, ditto mark = No coagulation
  Coagulation time: 250 s

## sodium salt of polyglutamic acid
Lipids in blood [2]
  Free cholesterol: 40.0 ± 11.4 mg/dl of plasma
  β-Lipoprotein: 63.4 ± 16.9 mg/dl of plasma
  Triglyceride: 92.0 ± 42.8 mg/dl of plasma
  Total cholesterol: 121.8 ± 18.9 mg/dl of plasma
  Total lipid: 393 ± 66 mg/dl of plasma

## heparin
Rat; intravenous
  LD50: 730 mg/kg
Rat; oral
  LD50: 1950 mg/kg
plasma; amount 0.1 μg
  Coagulation time: 62 s
plasma; amount 0.3 μg
  Coagulation time: 145 s
plasma; amount 0.5 μg
  Coagulation time: 168 s
plasma; amount 1 μg
  Coagulation time: 285 s
plasma; amount 10 μg
  Coagulation time: No coagulation
Lipids in blood [1]
  reducing lipids in blood: effective in reducing lipids in blood
Anticoagulant activity
  anticoagulant activity as a side effect: very high anticoagulant activity

Reference: patent publication US4232007A, “Oral antilipemic agents” (Taiho Pharmaceutical Company Ltd., priority 1975, dated 1980)
